Measured values reported in patent US20040198754A1, “Composition and method for appetite and craving suppression and mood enhancement” (Pro-Health, Inc., priority 2003, published 2004).

Assay: Individual human case reports of oral theobromine tablets (appetite, cravings, mood, energy, weight, side effects), with earlier use of commercial diet products
Type: in vivo
Text: They lost 18 lbs., and did report having a headache. No other side effects were reported.
No other side effects were reported.
They lost 9 lbs. in 21 days.
They also took Metabolife 356® made by Metabolife International Inc. which contains a caffeine-ephedrine combination.
A person had been taking Xenadrine EFX (ephedrine free, contains synephrine) to try to stop smoking while losing weight, but with little effect on their appetite and nicotine craving. […] They discontinued use of theobromine over a weekend, and noted that the urge to smoke again became strong. […] They were also exercising, and despite quitting smoking at the same time, lost 4.5 pounds, and reported fitting into clothes that they hadn't been able to wear for several years.

[1] = person, 500 mg. theobromine 4 times per day for 21 days
[2] = person, 2 grams per day for 12 days
[3] = person, 3,250 mg. tablets per day for 10 days
[4] = person, 4, 250 mg. tablets four times per day for 21 days
[5] = person, up to 2 grams daily for 28 days
[6] = smoker, 750 mg. theobromine per day for three weeks

SMILES: Cn1cnc2c1c(=O)[nH]c(=O)n2C [theobromine, 3,7-dimethylxanthine]
- craving for sweets (self-reported) (person with lifelong cravings for sweets, one 250 mg. tablet per day): no craving for such sweets
- appetite (self-reported) (person, 500 mg. of Theobromine): appetite suppression
- energy (self-reported) (person, 500 mg. of Theobromine): good energy
- mood (self-reported) (person, 500 mg. of Theobromine): sense of well being
- appetite and food cravings (self-reported) [1]: reduced appetite and food cravings
- energy (self-reported) [1]: increased energy without a stimulant high
- weight lost [1]: 8 lbs.
- weight lost (person, 750 mg. theobromine per day for three weeks, also exercising and quitting smoking): 4.5 pounds
- appetite (self-reported) [2]: less appetite
- energy, mood and thinking (self-reported) [2]: more energy, improved mood and clearer thinking
- weight loss [2]: 5 pound
- appetite (self-reported) [3]: reduced appetite
- energy (self-reported) [3]: excellent energy
- mood (self-reported) [3]: euphoric calmness to their mood
- weight lost [3]: 8 lbs.
- appetite (self-reported) [4]: reduced appetite
- mood and energy (self-reported) [4]: elevated mood, more energy
- weight lost [4]: 18 lbs.
- appetite (self-reported) [5]: lowered appetite
- energy or mood (self-reported) [5]: no energy or mood difference
- weight lost (person, up to 2 grams daily, in 21 days): 9 lbs.
- appetite (self-reported) [6]: reduced appetite
- cravings for chocolate prior to menses (self-reported) [6]: reduction in cravings for chocolate
- mood (self-reported) [6]: much calmer and less angry
- urge to smoke (self-reported) [6]: loss of the urge to smoke
